Read-outs that look alike come from different tables or passages of the source.
Assays:
Assay type in all cases: cell-based, human
[1] = system: p-ERK in AGS cells (KRAS G12D mutation); assay: Cell p-ERK assay (HTRF, Advance ERK phospho-T202/Y204 kit); conditions: AGS cells, 3 hours incubation with compound, HTRF, read-out: AGS p-ERK IC50
In short: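 Phospho-ERK (T202/Y204) measured by HTRF in lysates of human gastric AGS cells carrying KRAS G12D, after 3 h compound exposure at 0.1% DMSO over a 3.16-fold series. Percent inhibition relative to DMSO control and lysis-only blank; four-parameter curve fitting gave IC50.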

AGS cells (KRAS G12D) = assay: Cell proliferation inhibition assay, 3D, CellTiter-Glo 3D, AGS; conditions: AGS 3D sphere model, 5 days incubation
In short: (§1)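 Spheroids (800 AsPC-1 or 400 AGS cells/well; RPMI-1640 or F-12K with 10% FBS) formed overnight, then were dosed on day 2 with a 3.16-fold series at 0.1% DMSO. After 5 days, viability was read by CellTiter-Glo 3D luminescence, and IC50 came from four-parameter fits of inhibition versus DMSO control and medium blank.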

[2] = system: AsPC-1 cells (KRAS G12D mutation); assay: Cell proliferation inhibition assay, 3D, CellTiter-Glo 3D, AsPC-1; conditions: AsPC-1 3D sphere model, 5 days incubation
In short: as §1

IC50 [1]	IC50 (AGS cells (KRAS G12D))	IC50 [2]	SMILES	IC50 ([1]; Homo sapiens)	IC50 (AGS cells (KRAS G12D); Homo sapiens, 120 h)	IC50 ([2]; Homo sapiens, ASPC1, 120 h)
2.88 nM	10.8 nM	11.8 nM	C#Cc1cccc2cc(N)cc(-c3nc4c5c(nc(OC[C@@H]6C[C@@H](F)CN6C)nc5c3F)N3C[C@H]5CC[C@H](N5)[C@H]3[C@H](C)O4)c12 [Example Z732, 5-ethynyl-4-((5S,5aS,6S,9R)-1-fluoro-12-(((28,4R)-4-fluoro-1-methylpyrrolidin-2-yl)methoxy)-5-methyl-5a,6,7,8,9,10-hexahydro-5H-4-oxa-3,10a, 11, 13, 14-pentaaza-6,9-methanonaphtho[1,8-ab]heptalene-2-yl) naphthalen-2-amine]			
			C#Cc1cccc2cc(N)cc(-c3nc4c5c(nc(OC[C@@H]6CCCN6CC(F)F)nc5c3F)N3C[C@H]5CC[C@H](N5)[C@H]3[C@H](C)O4)c12 [Example Z733, 4-((5S,5aS,6S,9R)-12-(((S)-1-(2,2-difluoroethyl)pyrrolidin-2-yl)methoxy)-1-fluoro-5-methyl-5a,6,7,8,9,10-hexahydro-5H-4-oxa-3,10a,11,13,14-pentaaza-6,9-methanonaphtho[1,8-ab]heptalen-2-yl)-5-ethynylnaphthalen-2-amine]	76 nM	297 nM	267 nM
			C#Cc1cccc2cc(N)cc(-c3nc4c5c(nc(OC[C@]67CCCN6CC(F)(F)C7)nc5c3F)N3C[C@H]5CC[C@H](N5)[C@H]3[C@H](C)O4)c12 [Example Z734, 4-((5S,5aS,6S,9R)-12-(((R)-2,2-difluorotetrahydro-1H-pyrrolizin-7a (5H)-yl)methoxy)-1-fluoro-5-methyl-5a,6,7,8,9,10-hexahydro-5H-4-oxa-3,10a, 11,13, 14-pentaaza-6,9-methanonaphtho[1,8-ab]heptalene-2-yl)-5-ethynylnaphthalen-2-amine]	3.42 nM	17.2 nM	12.1 nM
